Starred links: 1 amine or outer side, 2 acyl side, 3 side chain; linkers in the order of their positions; H or OH if unused. Non-standard residues stand in square brackets, D forms with d. Residues, ends and D or L forms follow the SMILES beside them. X1 = O=C([C@H](Cc1ccc2c(c1)OC(F)(F)O2)N[*:1])[*:2]; Phe(4-CF3) = N[C@@H](Cc1ccc(C(F)(F)F)cc1)C(=O)O; X2 = N#CCc1ccc(C[C@H](N[*:1])C(=O)[*:2])cc1; Phe(4-CN) = N#Cc1ccc(C[C@H](N)C(=O)O)cc1
Biological target: PRMT5/MEP50 complex (Homo sapiens, UniProt O14744+Q9BQA1)
Assay: Competitive fluorescence polarization assay against a tracer peptide binding to the PRMT5/MEP50 complex
Settings: competitive FP; for IC50: 200 nM PRMT5:MEP50 complex, 1 nM tracer peptide 50, 50 mM HEPES, 250 mM NaCl, 1 mM TCEP, 0.01% Tween 20, pH 8.0, 1 hour incubation, ex 485 nm / em 535 nm, four-parameter fit
Source text: Next, we used the method to perform a small SAR study on a peptide that we previously identified as an inhibitor of PRMT5 protein–protein interactions.[37] The peptide is derived from the PRMT5 binding protein RioK1 and contains a Phe that is important for high-affinity binding. We prepared a peptide with an Asp residue installed in its place, which was protected using the 2-phenylisopropyl group to avoid aspartimide formation during peptide extension that occurred while using the allyl group.[38] The batch was split, and each portion was reacted with a different Ar–Br to rapidly generate peptides with diverse Phe analogues (Figure 3C). The prepared peptides were then tested in a competitive fluorescence polarization assay against a tracer peptide binding to the PRMT5/MEP50 complex.[37] […]
h. Competitive Fluorescence Polarization assay
Evaluation of peptide 42-46 was performed similar to our previously described protocol.3 As tracer, we used peptide 50 from the same report. In brief, the peptides to be tested were serially diluted in buffer (50 mM HEPES, 250 mM NaCl, 1mM TCEP, and 0.01% (v/v) Tween 20, pH 8.0) in a black 384 wells plate in a total volume of 10 μl per well. Next, a mixture of PRMT5:MEP50 complex and tracer peptide 50 in the same buffer was added so that a final protein concentration of 200 nM and final tracer concentration of 1 nM was reached. The mixture was incubated for 1 hour and read on a Tecan Spark plate reader in fluorescence polarization mode set to an excitation wavelength of 485 nm and emission wavelength of 535 nm. Data was analyzed using Graphpad Prism version 9.2.0 and curves were fitted using nonlinear regression (log(inhibitor) vs. response – variable slope (four parameters)).

PRMT5/MEP50 complex, sequence (O14744 whole entry, species assumed): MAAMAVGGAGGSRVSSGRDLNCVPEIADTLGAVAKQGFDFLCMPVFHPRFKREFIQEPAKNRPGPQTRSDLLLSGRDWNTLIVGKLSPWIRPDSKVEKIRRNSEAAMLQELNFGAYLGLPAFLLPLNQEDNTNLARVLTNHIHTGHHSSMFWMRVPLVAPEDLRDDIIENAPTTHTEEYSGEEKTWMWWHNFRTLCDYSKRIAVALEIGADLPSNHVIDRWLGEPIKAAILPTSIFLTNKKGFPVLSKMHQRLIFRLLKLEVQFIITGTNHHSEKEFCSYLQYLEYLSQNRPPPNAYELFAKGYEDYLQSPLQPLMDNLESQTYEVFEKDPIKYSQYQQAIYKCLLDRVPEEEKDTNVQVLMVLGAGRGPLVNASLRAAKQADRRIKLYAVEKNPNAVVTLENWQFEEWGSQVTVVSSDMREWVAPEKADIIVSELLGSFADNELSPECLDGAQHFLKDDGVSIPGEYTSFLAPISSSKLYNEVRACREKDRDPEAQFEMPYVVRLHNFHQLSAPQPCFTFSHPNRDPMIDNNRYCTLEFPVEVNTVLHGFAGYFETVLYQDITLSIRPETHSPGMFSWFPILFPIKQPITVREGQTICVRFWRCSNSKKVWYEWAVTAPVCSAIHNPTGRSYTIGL
PRMT5/MEP50 complex, sequence (Q9BQA1 whole entry partner, species assumed): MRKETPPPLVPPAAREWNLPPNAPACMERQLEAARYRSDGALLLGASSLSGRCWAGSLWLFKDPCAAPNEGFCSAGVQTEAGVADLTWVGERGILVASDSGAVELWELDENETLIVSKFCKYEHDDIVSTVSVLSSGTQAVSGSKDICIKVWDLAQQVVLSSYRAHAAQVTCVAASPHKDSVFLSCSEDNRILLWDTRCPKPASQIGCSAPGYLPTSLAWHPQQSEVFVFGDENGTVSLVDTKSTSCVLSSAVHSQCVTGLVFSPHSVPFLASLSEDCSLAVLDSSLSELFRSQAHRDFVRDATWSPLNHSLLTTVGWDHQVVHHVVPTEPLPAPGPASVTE

Molecule | IC50 [µM] | fold improvement in IC50 in comparison to the wild-type peptide 46 (PRMT5/MEP50 complex, relative to peptide 46) [fold]
Ac-VPGQFDDAD-NH2 [compound 46, reference compound] | 1.71 ± 0.59 | 
CC(=O)N[C@H](C(=O)N1CCC[C@H]1C(=O)NCC(=O)N[C@@H](CCC(N)=O)C(=O)N[C@@H](Cc1ccc(C#N)cc1)C(=O)N[C@@H](CC(=O)O)C(=O)N[C@@H](CC(=O)O)C(=O)N[C@@H](C)C(=O)N[C@@H](CC(=O)O)C(N)=O)C(C)C [compound 42] (Ac-VPGQ[Phe(4-CN)]DDAD-NH2) | 0.56 ± 0.15 | 3
CC(=O)N[C@H](C(=O)N1CCC[C@H]1C(=O)NCC(=O)N[C@@H](CCC(N)=O)C(=O)N[C@@H](Cc1ccc2c(c1)OC(F)(F)O2)C(=O)N[C@@H](CC(=O)O)C(=O)N[C@@H](CC(=O)O)C(=O)N[C@@H](C)C(=O)N[C@@H](CC(=O)O)C(N)=O)C(C)C [compound 45] (Ac-VPGQ[X1]DDAD-NH2) | 17.1 ± 8.05 | 
CC(=O)N[C@H](C(=O)N1CCC[C@H]1C(=O)NCC(=O)N[C@@H](CCC(N)=O)C(=O)N[C@@H](Cc1ccc(CC#N)cc1)C(=O)N[C@@H](CC(=O)O)C(=O)N[C@@H](CC(=O)O)C(=O)N[C@@H](C)C(=O)N[C@@H](CC(=O)O)C(N)=O)C(C)C [compound 43] (Ac-VPGQ[X2]DDAD-NH2) | 14.6 ± 6.37 | 
CC(=O)N[C@H](C(=O)N1CCC[C@H]1C(=O)NCC(=O)N[C@@H](CCC(N)=O)C(=O)N[C@@H](Cc1ccc(C(F)(F)F)cc1)C(=O)N[C@@H](CC(=O)O)C(=O)N[C@@H](CC(=O)O)C(=O)N[C@@H](C)C(=O)N[C@@H](CC(=O)O)C(N)=O)C(C)C [compound 44] (Ac-VPGQ[Phe(4-CF3)]DDAD-NH2) | 6.74 ± 3.23 | 

— PMC11019635, “On-Resin Photochemical Decarboxylative Arylation of Peptides” (Organic Letters, 2023)
